Results on twelve compounds are retold here after ChEMBL document CHEMBL5344406, “1,2,3-Triazole-containing hybrids with potential antibacterial activity against ESKAPE pathogens” (2022).

Holding throughout (format): functional
Assay [1] concerns Staphylococcus aureus. Description: Antibacterial activity against Staphylococcus aureus 209p ATCC 6538P assessed as bacterial growth inhibition incubated for 1 to 2 days by serial dilution method. The following applies: time 1-2 day.
Another assay concerns Escherichia coli. Description: Antibacterial activity against Escherichia coli ATCC 25922 assessed as bacterial growth inhibition by broth microdilution method. A general note: Dilution methods test growth across graded concentrations, often in twofold steps.
In assay [2] the test system is Staphylococcus aureus. Description: Antibacterial activity against Staphylococcus aureus ATCC 25923 assessed as bacterial growth inhibition by broth microdilution method.
In a further assay the test system is Streptococcus pyogenes. Description: Antibacterial activity against erythromycin-resistant Streptococcus pyogenes clinical isolate 2 assessed as bacterial growth inhibition incubated for 24 hrs by CLSI based broth microdilution method.
Assay [3] concerns Streptococcus pneumoniae. Description: Antibacterial activity against erythromycin-resistant Streptococcus pneumoniae B1 expressing ermB assessed as bacterial growth inhibition incubated for 24 hrs by CLSI based broth microdilution method.
Assay [4] relates to Streptococcus pneumoniae. Description: Antibacterial activity against erythromycin-resistant Streptococcus pneumoniae AB11 expressing ermB/mefA assessed as bacterial growth inhibition incubated for 24 hrs by CLSI based broth microdilution method.
The test system of assay [5] is Staphylococcus aureus. Description: Antibacterial activity against methicillin-resistant Staphylococcus aureus ATCC 43300 assessed as bacterial growth inhibition incubated for 24 hrs by CLSI based broth microdilution method.
Assay [6] concerns Staphylococcus aureus. Description: Antibacterial activity against penicillin-resistant Staphylococcus aureus ATCC 31007 assessed as bacterial growth inhibition incubated for 24 hrs by CLSI based broth microdilution method.
The test system of assay [7] is Staphylococcus aureus. Description: Antibacterial activity against Staphylococcus aureus clinical isolate 144 assessed as bacterial growth inhibition incubated for 24 hrs by broth microdilution method.
For assay [8], the system named is Staphylococcus aureus. Description: Antibacterial activity against Staphylococcus aureus ATCC 29213 assessed as bacterial growth inhibition incubated for 24 hrs by CLSI based broth dilution method.
Assay [9] relates to Staphylococcus aureus. Description: Antibacterial activity against Staphylococcus aureus ATCC 43300 assessed as bacterial growth inhibition incubated for 24 hrs by CLSI based broth dilution method.
Assay [10] concerns Staphylococcus aureus. Description: Antibacterial activity against Staphylococcus aureus clinical isolate 144 assessed as bacterial growth inhibition incubated for 24 hrs by CLSI based broth dilution method.
Assay [11] relates to Staphylococcus aureus. Description: Antibacterial activity against Staphylococcus aureus ATCC 43300 assessed as bacterial growth inhibition incubated for 24 hrs by broth microdilution method.
Assay [12] deals with Staphylococcus aureus. Description: Antibacterial activity against Staphylococcus aureus ATCC 29213 assessed as bacterial growth inhibition incubated for 24 hrs by broth microdilution method.
The test system of assay [13] is Staphylococcus aureus. Description: Antibacterial activity against Staphylococcus aureus clinical isolate AD3 assessed as bacterial growth inhibition incubated for 24 hrs by CLSI based broth dilution method.
Assay [14] deals with Staphylococcus aureus. Description: Antibacterial activity against Staphylococcus aureus clinical isolate AD3 assessed as bacterial growth inhibition incubated for 24 hrs by broth microdilution method.
Assay [15] relates to Bacillus subtilis. Description: Antibacterial activity against Bacillus subtilis assessed as bacterial growth inhibition by broth microdilution method.
The next assay concerns Pseudomonas aeruginosa. Description: Antibacterial activity against Pseudomonas aeruginosa assessed as bacterial growth inhibition by broth microdilution method.
The subject of assay [16] is Staphylococcus aureus. Description: Antibacterial activity against Staphylococcus aureus assessed as bacterial growth inhibition.
For assay [17], the system named is Staphylococcus aureus. Description: Antibacterial activity against methicillin-resistant Staphylococcus aureus ATCC 43300 assessed as bacterial growth inhibition by standard dilution assay.
Assay [18] has as its system Staphylococcus aureus. Description: Antibacterial activity against erythromycin-susceptible Staphylococcus aureus ATCC 25923 assessed as bacterial growth inhibition by standard dilution assay.
Assay [19] deals with Staphylococcus aureus. Description: Antibacterial activity against penicillin-resistant Staphylococcus aureus ATCC 31007 assessed as bacterial growth inhibition by standard dilution assay.
Assay [20] deals with Staphylococcus aureus. Description: Antibacterial activity against Staphylococcus aureus assessed as bacterial growth inhibition by broth dilution method.
Assay [21] relates to Bacillus subtilis. Description: Antibacterial activity against Bacillus subtilis assessed as bacterial growth inhibition by serial dilution method.
Assay [22] has as its system Staphylococcus aureus. Description: Antibacterial activity against multidrug-resistant Staphylococcus aureus clinical isolate assessed as bacterial growth inhibition by broth dilution method.
Assay [23] has as its system Staphylococcus epidermidis. Description: Antibacterial activity against Staphylococcus epidermidis assessed as bacterial growth inhibition by serial dilution method.

Structures are written as SMILES. Values after ≈ are worked out from the molar mass of the structure shown. A value given as a limit tells only on which side of the number the result lay.

Usually MIC stands for the smallest concentration in the dilution series that meets the test's criterion for growth inhibition. As to `COC(=O)c1cc2ccc(=O)oc2cc1-c1cn(-c2ccc(C(=O)O)cc2)nn1`, the MIC in the assay with Staphylococcus aureus [1] is 0.31 µg/mL (≈ 0.792 µM).
For the compound `Clc1ccc(Cn2cc(Cn3nnc(C4=Cc5cc(Cl)ccc5OC4)n3)nn2)c(Cl)c1`, the MIC in the assay on Escherichia coli and in the assay with Staphylococcus aureus [2] was 6.5 µg/mL (≈ 13.7 µM) in each case.
For the compound `CCCCCc1ccc(-c2cn(CC(=O)NNC(=O)O[C@H]3[C@H](C)[C@@H](O[C@H]4O[C@@H](C)C[C@@H](N(C)C)[C@@H]4O)[C@](C)(O)C[C@@H](C)CN(C)[C@H](C)C4OC(=O)O[C@@]4(C)[C@@H](CC)OC(=O)[C@@H]3C)nn2)cc1` (stereo partly drawn), the MIC with Streptococcus pyogenes, with Streptococcus pneumoniae [3], with Streptococcus pneumoniae [4], in the assay on Staphylococcus aureus [5] and with Staphylococcus aureus [6] was 4 µg/mL (≈ 4.3 µM) each time.
On to `C=C[C@]1(C)C[C@@H](OC(=O)CO)C2(C)[C@H](C)CCC3(CCC(=O)[C@H]32)[C@@H](C)[C@@H]1O` (stereo partly drawn), for which the MIC in the assay on Staphylococcus aureus [7], with Staphylococcus aureus [8], in the assay on Staphylococcus aureus [9], with Staphylococcus aureus [10], in the assay with Staphylococcus aureus [11] and in the assay on Staphylococcus aureus [12] was 2 µg/mL (≈ 5.28 µM) each time. In addition, the MIC with Staphylococcus aureus [13] and in the assay with Staphylococcus aureus [14] was 2 µg/mL (≈ 5.28 µM) throughout.
Regarding `C=C[C@]1(C)C[C@@H](OC(=O)Cn2cc(CN3CCN(c4ccc([N+](=O)[O-])cc4)CC3)nn2)[C@@]2(C)[C@@H]3C(=O)CC[C@@]3(CC[C@@H]2C)[C@@H](C)[C@@H]1O`, the MIC in the assay on Staphylococcus aureus [7], in the assay on Staphylococcus aureus [11], in the assay with Staphylococcus aureus [12] and with Staphylococcus aureus [14] was 0.5 µg/mL (≈ 0.771 µM) in each case.
With `C=CCCCCC1CC(=O)N1Cc1cn(-c2cccc([N+](=O)[O-])c2)nn1` (stereo not drawn), the MIC in the assay on Bacillus subtilis [15] and with Pseudomonas aeruginosa was 1.25 µg/mL (≈ 3.52 µM) in each case.
`COc1cc2c(cc1OC)C[N+](Cc1cn(-c3ccc(C(C)(C)C)cc3)nn1)(Cc1cn(-c3ccc(C(C)(C)C)cc3)nn1)CC2.[Br-]`: in the assay with Staphylococcus aureus [16], the minimal inhibitory concentration (MIC) is 4 µg/mL.
As for `C=C[C@]1(C)C[C@@H](OC(=O)Cn2cc(CN3CCN(c4ccccc4[N+](=O)[O-])CC3)nn2)[C@@]2(C)[C@@H]3C(=O)CC[C@@]3(CC[C@@H]2C)[C@@H](C)[C@@H]1O`, the minimal inhibitory concentration (MIC) in the assay with Staphylococcus aureus [7], with Staphylococcus aureus [11], with Staphylococcus aureus [12] and with Staphylococcus aureus [14] was 0.5 µg/mL (≈ 0.771 µM) each time.
As to `CC[C@H]1OC(=O)[C@H](C)[C@@H](O[C@H]2C[C@@](C)(OC)[C@@H](O)[C@H](C)O2)[C@H](C)[C@@H](O[C@@H]2O[C@H](C)C[C@H](N(C)C)[C@H]2O)[C@](C)(O)C[C@@H](C)CN(C)[C@H](C)[C@@H](O)[C@]1(C)O` [AZITHROMYCIN], the minimum inhibitory concentration (MIC) is more than 256 µg/mL in the assay on Streptococcus pyogenes; more than 128 µg/mL in the assay with Staphylococcus aureus [17]; more than 256 µg/mL with Streptococcus pneumoniae [3]; more than 256 µg/mL in the assay on Streptococcus pneumoniae [4]; more than 256 µg/mL in the assay on Staphylococcus aureus [5]; more than 128 µg/mL in the assay with Staphylococcus aureus [18]. For the same compound, the minimal inhibitory concentration (MIC) with Staphylococcus aureus [6] is more than 256 µg/mL; in the assay with Staphylococcus aureus [19], more than 128 µg/mL.
In the case of `CO/N=C(\C(=O)N[C@@H]1C(=O)N2C(C(=O)O)=C(CSc3nc(=O)c(O)nn3C)CS[C@H]12)c1csc(N)n1` [CEFTRIAXONE], the MIC with Staphylococcus aureus [1] stood at 0.97 µg/mL (≈ 1.75 µM).
As to `CC[C@H]1OC(=O)[C@H](C)[C@@H](O[C@H]2C[C@@](C)(OC)[C@@H](O)[C@H](C)O2)[C@H](C)[C@@H](O[C@@H]2O[C@H](C)C[C@H](N(C)C)[C@H]2O)[C@](C)(OC)C[C@@H](C)C(=O)[C@H](C)[C@@H](O)[C@]1(C)O` [CLARITHROMYCIN], the MIC in the assay on Staphylococcus aureus [17], in the assay with Staphylococcus aureus [18] and in the assay on Staphylococcus aureus [19] was more than 128 µg/mL in each case.
With `CCn1cc(C(=O)O)c(=O)c2cc(F)c(N3CCNCC3)cc21` [NORFLOXACIN], the MIC in the assay with Staphylococcus aureus [20] is 7.5 µg/mL (≈ 23.5 µM); in the assay on Bacillus subtilis [21], 3.12 µg/mL (≈ 9.77 µM); in the assay on Staphylococcus aureus [22] it was 7.5 µg/mL (≈ 23.5 µM); in [23] it was 3.12 µg/mL (≈ 9.77 µM).
